Type in all cases: biochemical
For one assay, the target named is T1, KLK8 (Homo sapiens, UniProt O60259).
T1 construct: purchased 2B scientific
T1 sequence (O60259 33-260): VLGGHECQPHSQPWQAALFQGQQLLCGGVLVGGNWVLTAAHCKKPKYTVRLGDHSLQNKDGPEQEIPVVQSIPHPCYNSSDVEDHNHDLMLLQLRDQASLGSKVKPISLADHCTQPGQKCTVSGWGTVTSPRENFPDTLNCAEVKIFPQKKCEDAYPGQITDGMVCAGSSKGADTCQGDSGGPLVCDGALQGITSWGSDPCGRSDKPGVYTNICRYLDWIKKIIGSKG
Briefly: KLK8 enzyme inhibition assay. The settings on record: read-out: KLK8 pIC50 (converted). Here is the method: (§1) Enzyme inhibition assays: All chemicals were purchased from Sigma Aldrich (Gillingham, UK) unless otherwise stated. All experiments were conducted in 384 well black, low volume microplates (Greiner 784076) with a final volume of 20 μL and compounds were dispensed into assay plates using an ECHO 550 acoustic dispenser (Labcyte). KLK6 (5 nM) (prepared as in ref. 21) was incubated with test compounds for 30 min at room temperature in assay buffer (50 mM Tris, pH 7.5, 150 mM NaCl, 1 mM EDTA, 0.05 % tween 20, 0.1 % bovine serum albumin (BSA), 1 mM dithiothreitol (DTT)) before the reaction was started by addition of 20 μM Boc‐Phe‐Ser‐Arg‐AMC substrate (Bachem). Fluorescence intensity was read at ex/em 355/460 following incubation for 2 h in the dark at room temperature.
(§2) Assays using KLK7 and KLK8 (2B scientific) were conducted in the same manner as for KLK6 with the following exceptions. Both KLK7 and KLK8 required activation before assaying. KLK7 was combined with an equal volume of 20 μg/ml thermolysin (R&D systems) in activation buffer (50 mM Tris, pH 7.5, 10 mM CaCl2, 150 mM NaCl and 0.05 % Brij‐L23) and incubated at 37 °C for 2 h, the reaction was stopped with the addition of 100 mM EDTA in stop solution (50 mM Tris, 150 mM NaCl, pH 8.5). KLK8 was combined with an equal volume of 0.4 mU/mL lysyl endopeptidase (Alpha laboratories) in activation buffer (50 mM Tris, pH 8.0) and incubated at 37 °C for 30 min. Activated KLK7 (40 nM) and KLK8 (25 nM) were assayed with 40 μM Mca‐RPKPVE‐Nval‐WRK(Dnp)‐NH2 fluorogenic MMP substrate (R&D systems) and 25 μM Boc‐V‐P‐R‐AMC substrate (R&D systems), respectively.

A further assay deals with T2, KLK7 (Homo sapiens, UniProt P49862).
T2 construct: purchased 2B scientific
T2 sequence (P49862 30-253, species assumed): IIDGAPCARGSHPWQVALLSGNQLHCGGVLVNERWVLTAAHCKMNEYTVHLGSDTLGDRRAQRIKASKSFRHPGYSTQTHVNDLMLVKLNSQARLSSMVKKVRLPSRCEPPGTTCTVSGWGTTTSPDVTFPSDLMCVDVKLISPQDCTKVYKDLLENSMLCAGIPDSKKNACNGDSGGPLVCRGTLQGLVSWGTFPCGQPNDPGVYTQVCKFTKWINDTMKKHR
Briefly: KLK7 enzyme inhibition assay. The settings on record: read-out: KLK7 pIC50 (converted). Here is the method:
as §1, §2

The target of a further assay is KLK6 (Homo sapiens, UniProt Q92876). Briefly: KLK6 enzymatic inhibition assay (fluorogenic Boc-Phe-Ser-Arg-AMC substrate). More on the design: made in house. The settings on record: for IC50: read-out: KLK6 pIC50 (converted); for LipE: LipE=pIC50 – logP (KLK6 pIC50, ALogP). Here is the method:
Using our previously published KLK6 assay format,21 we performed a HTS with the European Lead Factory (ELF),22 and tested ∼350,000 substances at 10 μM for their ability to reduce KLK6‐catalyzed hydrolysis of the fluorogenic Boc‐Phe‐Ser‐Arg‐AMC peptide.
High Throughput Screen: The European Lead Factory library of ∼350,000 compounds was used for high throughput screening at the Pivot Park Screening Center facilities in Oss, The Netherlands. […] For SPR, Biacore T200 was used and KLK6 was immobilized onto a CM5 chip. […] An 8 point 1 in 3 dilution series of 1 (50 μM to 0.02 μM) was also applied at the beginning and end of each screening day.
Enzyme inhibition assays: All chemicals were purchased from Sigma Aldrich (Gillingham, UK) unless otherwise stated.

The target in another assay is KLK4 (Homo sapiens, UniProt Q9Y5K2). Briefly: KLK4 inhibition (selectivity). The settings on record: read-out: KLK4 pIC50 (converted). The text has this:
Table 3 Activity of synthesized inhibitors against KLK6 and related proteases. | column: KLK4^a

The target of another assay is T3, Human thrombin (Homo sapiens, UniProt P00734).
T3 construct: Human thrombin was purchased from Biopur; purchased Biopur
Briefly: Thrombin enzyme inhibition assay. The settings on record: read-out: Thrombin pIC50 (converted). How it is done:
(§3) Human thrombin was purchased from Biopur. Human trypsin was purchased from Polymun Scientific. Human Factor Xa was purchased from Enzo Life Sciences. Thrombin (20 nM), trypsin (0.000015 %) or Factor Xa (10 nM) were assayed in a similar manner to the KLKs but were incubated with compound for 20 min at room temperature in assay buffer (50 mM Tris HCl, pH 7.6, 100 mM NaCl, 1 mg/ml CHAPS, 0.05 % bovine serum albumin (BSA), 1 mM dithiothreitol (DTT)) before the addition of 5 μM, 2.5 μM or 1.5 μM Rhodamine 110 substrate (Cambridge bioscience ltd) respectively. Fluorescence intensity was then read at ex/em 485/535 following incubation for 1 h at room temperature (thrombin and factor Xa) or 20 min (trypsin).

For the next assay, the target named is T4, Human Factor Xa (Homo sapiens, UniProt P00742).
T4 construct: Human Factor Xa was purchased from Enzo Life Sciences; purchased Enzo Life Sciences
T4 sequence (P00742 235-488 limits assumed): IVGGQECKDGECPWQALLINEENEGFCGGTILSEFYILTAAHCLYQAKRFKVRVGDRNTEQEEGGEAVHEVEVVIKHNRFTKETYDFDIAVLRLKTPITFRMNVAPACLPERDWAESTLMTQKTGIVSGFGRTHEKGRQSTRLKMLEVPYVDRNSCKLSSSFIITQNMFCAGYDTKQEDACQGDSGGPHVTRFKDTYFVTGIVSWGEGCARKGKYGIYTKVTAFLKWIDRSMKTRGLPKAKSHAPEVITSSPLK
T4 sequence (P00742 41-179 partner limits assumed): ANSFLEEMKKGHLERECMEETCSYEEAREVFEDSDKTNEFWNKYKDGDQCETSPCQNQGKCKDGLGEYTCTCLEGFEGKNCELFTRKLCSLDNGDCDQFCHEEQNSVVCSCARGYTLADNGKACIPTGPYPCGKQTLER
As to the kind of experiment: Factor Xa enzyme inhibition assay. The settings on record: read-out: Factor Xa pIC50 (converted). How it is done:
as §3

The target in the next assay is T5, Human trypsin (Homo sapiens, UniProt P07477).
T5 construct: purchased Polymun Scientific
Briefly: Trypsin enzyme inhibition assay. The settings on record: for IC50: read-out: Trypsin pIC50 (converted). How it is done: Human thrombin was purchased from Biopur. Human trypsin was purchased from Polymun Scientific. Human Factor Xa was purchased from Enzo Life Sciences. […] Fluorescence intensity was then read at ex/em 485/535 following incubation for 1 h at room temperature (thrombin and factor Xa) or 20 min (trypsin).

The mark [1] stands for this setting: synthesized inhibitors (Table 3), 8.6 = assay limit.
Where [2] appears, read: resynthesized stereoisomers, enzymatic inhibition assay (Table 2).

Like-named read-outs stand apart in the source and are kept apart here.

KLK4, sequence (Q9Y5K2 31-254, species assumed): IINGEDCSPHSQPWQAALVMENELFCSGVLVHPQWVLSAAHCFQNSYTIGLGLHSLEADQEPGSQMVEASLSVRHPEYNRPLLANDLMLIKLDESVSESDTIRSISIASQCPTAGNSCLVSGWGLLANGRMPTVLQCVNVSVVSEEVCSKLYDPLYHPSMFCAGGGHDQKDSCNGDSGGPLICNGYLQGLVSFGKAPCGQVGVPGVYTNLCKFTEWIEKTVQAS

`COc1cccc(C(C)NC(=O)C2CC(=O)N(c3ccc(C(=N)N)cc3)C2)c1` [Compound 43, (5R)‐1‐(4‐carbamimidoylphenyl)‐N‐[(1S)‐1‐(3‐methoxyphenyl)ethyl]‐5‐oxopyrrolidine‐3‐carboxamide]: the IC50 on KLK8 was over 20 µM; at KLK7, over 20 µM; on KLK6 (setting [1]), 0.316 µM; at KLK4, 7.94 µM; at Human thrombin, over 20 µM; at Human Factor Xa, over 20 µM. Further, on Human trypsin, the IC50 was 5.01 µM.

Take `COc1cccc([C@H](C)NC(=O)[C@@H]2CCN(c3ccc(C(=N)N)cc3)C2)c1` [Compound 47, (3R)‐1‐(4‐carbamimidoylphenyl)‐N‐[(1S)‐1‐(3‐methoxyphenyl)ethyl]pyrrolidine‐3‐carboxamide]: the IC50 is 7.94 µM at KLK8; over 20 µM at KLK7; 0.794 µM on KLK6 (setting [1]); 1.26 µM on KLK4; over 20 µM on Human thrombin; over 20 µM at Human Factor Xa. Also, the IC50 on Human trypsin was 5.01 µM.

As for `C[C@H](NC(=O)[C@H]1CN(c2ccc(C(=N)N)cc2)C(=O)O1)c1cccc2ccccc12` [Compound 29, (5R)‐3‐(4‐carbamimidoylphenyl)‐N‐((S)‐1‐(naphthalen‐1‐yl)ethyl)‐2‐oxooxazolidine‐5‐carboxamide], the IC50 was 1 µM on KLK8; over 20 µM on KLK7; 0.0126 µM on KLK6 (setting [1]); 0.631 µM on KLK4; over 20 µM on Human thrombin; over 20 µM at Human Factor Xa. Further, on Human trypsin, the IC50 is 0.794 µM.

`CC(C)(NC(=O)[C@H]1CN(c2ccc(C(=N)N)cc2)C(=O)O1)c1cccc2ccccc12` [Compound 31, (5R)‐3‐(4‐carbamimidoylphenyl)‐N‐(2‐(naphthalen‐1‐yl)propan‐2‐yl)‐2‐oxooxazolidine‐5‐carboxamide]: the IC50 is over 20 µM on KLK8, 0.0794 µM at KLK6 (setting [1]) and 5.01 µM on Human trypsin. Besides, at KLK6 (relative to 29), the KLK6 potency loss is listed as about 6 fold.

On to `CC[C@H](NC(=O)[C@H]1CN(c2ccc(C(=N)N)cc2)C(=O)O1)c1ccnc2ccccc12` [Compound 33, (5R)‐3‐(4‐carbamimidoylphenyl)‐2‐oxo‐N‐((1S)‐1‐(quinolin‐4‐yl)propyl)oxazolidine‐5‐carboxamide], for which the values for the IC50 on KLK8, at KLK6 (setting [1]) and on Human trypsin were over 20 µM, 0.126 µM and 6.31 µM, respectively.

Consider `COc1cccc([C@H](C)NC[C@H]2CN(c3ccc(C(=N)N)cc3)C(=O)O2)c1` [Compound 49, 4‐((S)‐5‐((((S)‐1‐(3‐methoxyphenyl)ethyl)amino)methyl)‐2‐oxooxazolidin‐3‐yl)benzimidamide], for which the IC50 at KLK8 was over 20 µM; on KLK7 it was over 20 µM; at KLK6 (setting [1]) it was 10 µM; on Human thrombin, over 20 µM; at Human Factor Xa it was over 20 µM; on Human trypsin, over 20 µM. For the same compound, the KLK6 potency loss at KLK6 (relative to 5) was determined as 40 fold.

In the case of `COc1cccc(C(C)(C)NC(=O)[C@H]2CN(c3ccc(C(=N)N)cc3)C(=O)O2)c1` [Compound 26, (5R)‐3‐(4‐carbamimidoylphenyl)‐N‐(2‐(3‐methoxyphenyl)propan‐2‐yl)‐2‐oxooxazolidine‐5‐carboxamide], the IC50 at KLK8 is over 20 µM; on KLK6 (setting [1]) it was 0.158 µM; at Human trypsin, 10 µM.

In the case of `COc1cccc([C@@H](NC(=O)[C@H]2CN(c3ccc(C(=N)N)cc3)C(=O)O2)C2CC2)c1` [Compound 25, (5R)‐3‐(4‐carbamimidoylphenyl)‐N‐((1S)‐cyclopropyl(3‐methoxyphenyl)methyl)‐2‐oxooxazolidine‐5‐carboxamide], the IC50 on KLK8 is 0.794 µM; on KLK7 it was over 20 µM; at KLK6 (setting [1]) it was 0.0316 µM; at Human thrombin it was over 20 µM; on Human Factor Xa it was over 20 µM; at Human trypsin, 0.251 µM.

As to `CC(C)(NC(=O)[C@H]1CN(c2ccc(C(=N)N)cc2)C(=O)O1)C(=O)Nc1ccccc1` [Compound 28, (5R)‐3‐(4‐carbamimidoylphenyl)‐N‐(2‐methyl‐1‐oxo‐1‐(phenylamino)propan‐2‐yl)‐2‐oxooxazolidine‐5‐carboxamide], the LipE on KLK6 is 6.20. In addition, the figures for the IC50 on KLK6 (setting [1]), at KLK4 and at Human trypsin were 0.0316 µM, 1.58 µM and 6.31 µM, respectively.

On to `CC[C@H](NC(=O)[C@H]1CN(c2ccc(CN)cc2)C(=O)O1)c1cccc2ccccc12` [Compound 35, (5R)‐3‐(4‐(aminomethyl)phenyl)‐N‐[(1S)‐1‐(naphthalen‐1‐yl)propyl]‐2‐oxooxazolidine‐5‐carboxamide], for which the IC50 on KLK8 is 10 µM; at KLK6 (setting [1]), 0.316 µM; on KLK4, 5.01 µM; at Human trypsin, 5.01 µM. This compound also came in with a KLK6 potency loss at KLK6 (relative to 32) of about 100 fold.

For the compound `COc1cccc([C@@H](C)NC(=O)[C@H]2CN(c3ccc(C(=N)N)cc3)C(=O)O2)c1` [Compound 11, (5R)‐3‐(4‐carbamimidoylphenyl)‐N‐[(R)‐1‐(3‐methoxyphenyl)ethyl]‐2‐oxooxazolidine‐5‐carboxamide], the IC50 at KLK8, at KLK7, at KLK6 (setting [2]), at Human thrombin, at Human Factor Xa and on Human trypsin was over 20 µM throughout.

In the case of `COc1cccc([C@H](C)NC(=O)[C@@H]2CN(c3ccc(C(=N)N)cc3)C(=O)O2)c1` [Compound 10], on KLK6 (setting [2]), the IC50 was over 20 µM.

For `CC[C@H](NC(=O)[C@H]1CN(c2ccc(C(=N)N)nc2)C(=O)O1)c1cccc2ccccc12` [Compound 34, (5R)‐3‐(6‐carbamimidoylpyridin‐3‐yl)‐N‐((1S)‐1‐(naphthalen‐1‐yl)propyl)‐2‐oxooxazolidine‐5‐carboxamide], the IC50 at KLK8 is 0.501 µM; at KLK6 (setting [1]) it was 0.00501 µM; on Human trypsin, 0.631 µM. For the same compound, the LipE at KLK6 was determined as 5.76. The selectivity against trypsin on Human trypsin (KLK6 over trypsin) is listed as over 100 fold.

Regarding `COc1cccc(CNC(=O)[C@H]2CN(c3ccc(C(=N)N)cc3)C(=O)O2)c1` [Compound 23, (5R)‐3‐(4‐carbamimidoylphenyl)‐N‐(3‐methoxybenzyl)‐2‐oxooxazolidine‐5‐carboxamide], the IC50 at KLK8 was over 20 µM; on KLK7 it was over 20 µM; at KLK6 (setting [1]), 3.98 µM; at Human thrombin, over 20 µM; at Human Factor Xa, over 20 µM; on Human trypsin it was over 20 µM.

The values above are taken from publication PMC7004151, “Synthesis and Structure‐Activity Relationships of N‐(4‐Benzamidino)‐Oxazolidinones: Potent and Selective Inhibitors of Kallikrein‐Related Peptidase 6” (Chemmedchem, 2019).
